Measured values from article PMC4856263, “Probing the ATP Site of GRP78 with Nucleotide Triphosphate Analogs” (PLoS ONE, 2016).

Experiments:
[1] = tested on: human ecto-nucleotidases (NTPDase1, 2, 3, 8 and NPP1 and 3); conditions: cited from earlier work
[2] = molecular target: T1, GRP78ATPase (ATPase domain of human GRP78, residues 26–407) (Homo sapiens, UniProt P11021); experiment: Surface plasmon resonance (SPR) binding of nucleotides to immobilized GRP78ATPase; conditions: for Kd: 25 °C, mean ± SD, n = 3; for binding to GRP78ATPase upon removal of Mg++ (in words): 5 mM EDTA
T1 construct: GRP78ATPase (residues 26–407) was amplified from the full-length human GRP78; hexahistidine tag (pET28-MHL vector) (N); made in house; host or cells: E. coli BL-21(DE3)
Protocol: Successful transformants were grown in Luria Bertani broth (Sigma) for 16 hrs at 37°C, and then transferred to Terrific Broth (Sigma). Growth at 37°C continued until the OD600 reached ~3.0, whereupon the temperature was lowered to 18°C and protein expression was induced by the addition of 0.1 mM isopropyl β-D-thiogalactopyranoside. Sixteen hours post-induction, cells were collected by centrifugation and resuspended in binding buffer (30 mM Tris-HCl pH 7.5, 200 mM NaCl, 1 mM β-ME) supplemented with 0.1% octylphenoxypolyethoxyethanol, 1 mM benzamidine, and 1 mM phenylmethanesulfonyl fluoride. Cells were lysed by French press, and the lysates were clarified by centrifugation. The supernatant was loaded on to a nickel-nitrilotriacetic acid column pre-equilibrated with binding buffer. Following a wash step with binding buffer containing 30 mM imidazole, the bound protein was eluted using a linear gradient from 30 to 500 mM imidazole. The eluate was then loaded on to a 26/60 Superdex 200 size exclusion column (GE Healthcare) pre-equilibrated with 30 mM Tris-HCl pH 7.5, 200 mM NaCl and 1 mM β-ME. Target protein-containing fractions were pooled and concentrated to 30 mg/ml using 10-kDa centrifugal filter units (Amicon), and then frozen in aliquots at -80°C until further use
SPR measurements were performed on Biacore T200 instrument (GE Healthcare) at 25 °C. Purified GRP78ATPase was immobilized on a CM5 sensorchip using NHS/EDC coupling following the manufacturer protocol to a level of ~7000 RUs, a reference surfaces without immobilized GRP78ATPase served as a control for nonspecific binding and refractive index changes. […] Buffer alone injections were used as blanks. […] The running buffer was 10 mM HEPES, pH 7.4, 150 mM NaCl, 0.005% P20 and 2 mM MgCl2. Biacore equilibrium responses recorded at the end of the association step were used to determine the dissociation constant (Kd). Nonspecific signal binding was removed by subtracting a reference channel without GRP78ATPase. Binding responses at the different concentrations were globally fitted to a saturation-binding model in Prism 6 (GraphPad Software Inc., California).
The effect of Mg^++ on binding affinities was explored by repeating the same SPR protocol with two additional running buffers. The first running buffer contained no addition of Mg^++ to determine the effect of Mg^++ co-purified with GRP78ATPase (10 mM HEPES, pH 7.4, 150 mM NaCl and 0.005% P20), and the second running buffer contained 5 mM EDTA to chelate any Mg^++ present in the system (10 mM HEPES, pH 7.4, 150 mM NaCl, 0.005% P20 and 5 mM EDTA).

[3] = SPR running buffer untreated (no addition of either MgCl2 or EDTA)
[4] = SPR running buffer with 2 mM MgCl2
[5] = SPR running buffer with 5 mM EDTA (Mg++ removed)

T1 sequence (P11021 26-407): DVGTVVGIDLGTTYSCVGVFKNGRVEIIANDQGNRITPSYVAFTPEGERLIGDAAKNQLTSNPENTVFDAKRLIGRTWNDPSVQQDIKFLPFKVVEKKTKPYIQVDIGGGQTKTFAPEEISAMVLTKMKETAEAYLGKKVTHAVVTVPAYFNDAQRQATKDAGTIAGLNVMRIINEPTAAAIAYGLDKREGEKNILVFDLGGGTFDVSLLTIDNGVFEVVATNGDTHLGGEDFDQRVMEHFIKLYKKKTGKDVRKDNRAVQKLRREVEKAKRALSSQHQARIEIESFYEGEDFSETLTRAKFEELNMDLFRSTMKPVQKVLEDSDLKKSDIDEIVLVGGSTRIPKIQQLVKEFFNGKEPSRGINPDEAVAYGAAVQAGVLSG

Structure (SMILES)	hydrolysis by most human ecto-nucleotidases [1]	Kd [2, 3] [µM]	Kd [2, 4] [µM]	Kd [2, 5] [µM]	binding to GRP78ATPase upon removal of Mg++ (in words) [2]	affinity relative to ATP (in words) ([2]; purified GRP78ATPase, SPR)
Nc1ncnc2c1ncn2C1OC(COP(=O)(O)OP(=O)(O)C(Br)(Br)P(=O)(O)O)C(O)C1O (stereo not drawn) [AMPPCBrP]	cannot hydrolyze					
Nc1ncnc2c1ccn2C1OC(COP(=O)(O)OP(=O)(O)OP(=O)(O)O)C(O)C1O (stereo not drawn) [7-deazaATP]		0.15	0.03	0.9		
Nc1ncnc2c1ncn2[C@@H]1O[C@H](COP(=O)(O)OP(=O)(O)OP(=O)(O)O)[C@@H](O)[C@H]1O [ATP]		0.78	0.45	9.8		
Nc1ncnc2c1ncn2[C@@H]1O[C@H](COP(=O)(O)OP(=O)(O)CP(=O)(O)O)[C@@H](O)[C@H]1O [AMPPCP]		52	59	> 1000	almost abolished binding	two-orders of magnitude lower
Nc1ncnc2c1ncn2[C@H]1C[C@H](O)[C@@H](COP(=O)(O)OP(=O)(O)OP(=O)(O)O)O1 [2'-deoxyATP]		750		> 1000	nearly abolished the binding	
